Measurements published in patent publication US20170055529A1, “BROAD SPECTRUM WEED CONTROL IN FLOODED RICE BY IN-WATER APPLICATION OF AUXIN HERBICIDES” (priority 2015, published 2017).
Read-outs that look alike come from different tables or passages of the source.

Key:
Assay type in all cases: in vivo
[1] = system: MOOVA = Monochoria vaginalis (monochoria); assay: Greenhouse in-water herbicidal activity (large pots); conditions: Pontederia vaginalis, 744 h, read-out: Percent (%) Visual Injury Ratings - 31 DAA, MOOVA
Procedure: (§1) Weed seeds or nutlets of the desired test plant species were planted in puddled soil (mud) prepared by mixing shredded topsoil and deionized (DI) water in a 1:1 ratio in a standard cement mixer. […] Osmocote® (17:6:10 N:P:K; 0.5 teaspoon) was added to the bottom of a container. The container is a high-density polyethylene (HDPE) round container (4.163 L (1.1 gallon), 15 cm high×20.55 cm diameter; for treatment purposes, the surface area is calculated as 331 cm^2 with 1 hectare equivalent to 10^8 cm^2). The mud mixture (2,750 mL) was added to the container filling it half full. Stakes were placed horizontally in each container to create separate areas for which to plant each different plant species. Water was added on a regular basis to maintain the paddy flood, and supplemental lighting was provided with overhead metal halide 1000-Watt lamps as necessary.
(§2) Once the plants had reached the proper size (the growth stage of the various species ranged from 2 to 4 leaves), the containers were flooded with city water to a depth of 3 cm submerging the plants 80-100%. The outside of each container was measured and marked at a 3-cm line with a black permanent marker to eliminate water level variability during the trial period. Water was added daily to maintain this water depth. Triclopyr triethylammonium (as Garlon® 3 A, 360 g ae/L); triclopyr butoxyethyl ester (as Garlon® 4, 480 g ae/L); fluroxypyr methylheptyl ester (meptyl or MHE, as Starane® Ultra, 333 g ae/L); fluroxypyr acid (850 grams acid equivalent per kilogram (g ae/kg)); 2,4-dichlorophenoxyacetic acid dimethylammonium (2,4-D DMA, as Weedar® 64 EC, 456 g ae/L); 2,4-dichlorophenoxyacetic acid 2-ethylhexyl ester (2,4-D 2-EHE, as Agri Star®, 456 g ae/L); clopyralid olamine (as Stinger®, 360 g ae/L); and penoxsulam (as Grasp® SC, 240 g ai/L) were used. Each herbicide treatment for each pot was mixed in water (80 mL) and applied directly into the paddy water at rates adjusted to the surface area. The dry formulations were pre-weighed based on the rate of the active ingredient to be applied on a per unit area basis, placed in 30 mL vials, and capped. Granules were spread onto the top of the water in each pot and dispersed throughout the water. Treatments were replicated 3 times.
(§3) The treated plants and control plants were placed in a greenhouse as described above and water was added as needed to maintain a flood depth of 3 cm. […]

[2] = system: ECHCG = Echinochloa crus-galli (barnyardgrass); assay: as above; conditions: 744 h, read-out: Percent (%) Visual Injury Ratings - 31 DAA, ECHCG
Procedure: as §1, §2, §3

[3] = system: CYPDI = Cyperus difformis (small-flower flatsedge); assay: as above; conditions: Cyperus difformis, 744 h, read-out: Percent (%) Visual Injury Ratings - 31 DAA, CYPDI
Procedure: as §1, §2, §3

rice = assay: In-water application, crop safety (summary statement)
[4] = system: barnyardgrass (Echinochloa crus-galli), small-flower flatsedge (Cyperus difformis), Japanese bulrush (Schoenoplectus juncoides) and monochoria (Monochoria …); assay: In-water application, weed efficacy (summary statement); conditions: application rate of about 35 to about 280 g ae/ha
[5] = system: ORYSP = Oryza sativa (transplanted paddy rice); assay: Greenhouse in-water application (large pots), crop injury
Procedure: as §1, §2, §3

[6] = system: SCPJU = Schoenoplectus juncoides (Japanese bulrush); assay: Greenhouse in-water herbicidal activity (small pots); conditions: 35 g ae/ha (as headed) in-water
Description: (§4) Weed seeds of the desired test plant species were planted in puddled soil (mud) prepared by mixing a non-sterilized mineral soil (approximately 50 percent silt, 26 percent clay, and 24 percent sand, with a pH of about 7.6 and an organic matter content of about 2.9 percent) and water at a 1:1 volumetric ratio. The prepared mud was dispensed in 365 milliliter (mL) aliquots into 16-ounce (oz.) non-perforated plastic pots with a surface area of 86.59 square centimeters (cm^2) leaving a headspace of 3 centimeters (cm) in each pot. Mud was allowed to dry overnight prior to planting or transplanting. Rice seeds were planted in Sun Gro® MetroMix® 360 planting mixture, which typically has a pH of 6.0 to 6.8 and an organic matter content of about 30 percent, in plastic plug trays. Seedlings at the second or third leaf stage of growth were transplanted into 840 mL of mud contained in 32-oz. non-perforated plastic pots with a surface area of 86.59 cm^2 four days prior to herbicide application. The paddy was created by filling the headspace of the pots with 2.5 to 3 cm of water. When required to ensure good germination and healthy plants, a fungicide treatment and/or other chemical or physical treatment was applied. The plants were grown for 4-22 days (d) in a greenhouse with an approximate 14-hour (h) photoperiod which was maintained at about 29° C. during the day and 26° C. during the night. Nutrients were added as Osmocote® (19:6:12, Nitrogen:Phosphorus:Potassium (N:P:K)+minor nutrients) at 2 g per 16 oz. pot and 4 g per 32 oz. pot. Water was added on a regular basis to maintain the paddy flood, and supplemental lighting was provided with overhead metal halide 1000-Watt lamps as necessary. The plants were used for testing when they reached the second or third true leaf stage.
(§5) Triclopyr triethylammonium (as Grandstand® R, 359.5 grams acid equivalent per liter (g ae/L)); fluroxypyr methylheptyl ester (meptyl or MHE, as Starane™, 179.8 g ae/L); 2,4-dichlorophenoxyacetic acid dimethylammonium (2,4-D DMA, as Weedar® 64, 455.4 g ae/L); and penoxsulam (as Grasp® SC, 239.7 grams active ingredient per liter (g ai/L) were used. Measured amounts of formulated compounds were placed in individual 120 mL glass vials and were dissolved in 40 mL of an aqueous mixture containing 1.25% volume per volume (v/v) Agri-Dex® crop oil concentrate. Generally, multiple concentrations were tested utilizing the same stock solution. Applications were made by injecting an appropriate amount of the application solution into the aqueous layer of the paddy. Control plants were treated in the same manner with the solvent blank.
(§6) The treated plants and control plants were placed in a greenhouse as described above and water was added as needed to maintain a paddy flood. After approximately 3 weeks the condition of the test plants, compared with that of the untreated plants, was determined visually and scored on a scale of 0 to 100 percent where 0 corresponds to no injury or growth reduction and 100 corresponds to complete kill.

[7] = system: MOOVA = Monochoria vaginalis (monochoria); assay: as above; conditions: 35 g ae/ha (as headed) in-water
Description: as §4, §5, §6

[8] = system: ECHCG = Echinochloa crus-galli (barnyardgrass); assay: as above; conditions: 35 g ae/ha (as headed) in-water
Description: as §4, §5, §6

[9] = system: CYDPI = Cyperus difformis (small-flower flatsedge); assay: as above; conditions: 35 g ae/ha (as headed) in-water
Description: as §4, §5, §6

[10] = 280 g ae/ha in-water, greenhouse large pots, 31 DAA
[11] = 560 g ae/ha in-water, greenhouse large pots, 31 DAA
[12] = 1120 g ae/ha in-water, greenhouse large pots, 31 DAA
[13] = application rates of less than or equal to 280 g ae/ha
[14] = 35 g ai/ha in-water, greenhouse large pots, 31 DAA

Row | Compound | pest or weed control at 280 g/ha [1, 10] | pest or weed control at 1120 g/ha [1, 12] | pest or weed control at 280 g/ha [2, 10] | pest or weed control at 560 g/ha [2, 11] | pest or weed control at 1120 g/ha [2, 12] | pest or weed control at 280 g/ha [3, 10] | pest or weed control at 1120 g/ha [3, 12] | crop safety exhibited by rice (rice; [13]) | efficacy on several commercially relevant weeds [4] | also measured
1 | CCCCC(CC)COC(=O)COc1ccc(Cl)cc1Cl (stereo not shown) [2,4-D 2-ethylhexyl ester (Agri Star ®)] | 100% | 100% | 35% | 65% | 87% | 100% | 100% | – | – | pest or weed control at 560 g/ha [1, 11]: 100%; pest or weed control at 560 g/ha [3, 11]: 100%
2 | O=C(O)COc1ccc(Cl)cc1Cl [2,4-D, (2,4-dichlorophenoxy)acetic acid] | – | – | – | – | – | – | – | little to no crop injury | highly efficacious | –
3 | O=C(O)c1nc(Cl)ccc1Cl [Clopyralid olamine (Stinger ®), 2-hydroxyethanaminium 3,6-dichloro-2-pyridinecarboxylate] | – | – | – | – | – | – | – | – | – | Percent (%) Visual Injury Ratings - 31 DAA, ORYSP ([5]; 280 g ae/ha in-water): 0%; Percent (%) Visual Injury Ratings - 31 DAA, ORYSP ([5]; 560 g ae/ha in-water): 0%; Percent (%) Visual Injury Ratings - 31 DAA, ORYSP ([5]; 1120 g ae/ha in-water): 0%; pest or weed control at 280 g/ha [1]: 10%; pest or weed control at 560 g/ha [1]: 18%; pest or weed control at 1120 g/ha [1]: 23%; pest or weed control at 280 g/ha [2]: 17%; pest or weed control at 560 g/ha [2]: 4%; pest or weed control at 1120 g/ha [2]: 5%; pest or weed control at 280 g/ha [3]: 7%; pest or weed control at 560 g/ha [3]: 53%; pest or weed control at 1120 g/ha [3]: 59%
4 | Nc1c(Cl)c(F)nc(OCC(=O)O)c1Cl [Fluroxypyr acid, 2-[(4-amino-3,5-dichloro-6-fluoro-2-pyridinyl)oxy]-acetic acid] | 98% | 100% | 27% | 28% | 45% | 100% | 100% | – | highly efficacious | crop safety exhibited by rice (rice; in vivo): little to no crop injury
5 | COc1cnc(OC)n2nc(NS(=O)(=O)c3c(OCC(F)F)cccc3C(F)(F)F)nc12 [Penoxsulam (Grasp ® SC), penoxsulam] | – | – | – | – | – | – | – | – | – | pest or weed control at 35 g/ha [1, 14]: 100%; pest or weed control at 35 g/ha [2, 14]: 100%; pest or weed control at 35 g/ha [3, 14]: 99%; Percent (%) Visual Injury Ratings - 20 DAA, SCPJU [6]: 100%; Percent (%) Visual Injury Ratings - 20 DAA, MOOVA [7]: 99%; Percent (%) Visual Injury Ratings - 20 DAA, ECHCG [8]: 99%; Percent (%) Visual Injury Ratings - 20 DAA, CYDPI [9]: 100%
6 | CCCCOCCOC(=O)COc1nc(Cl)c(Cl)cc1Cl [Triclopyr butoxyethyl ester (Garlon ® 4), 2-butoxyethyl 2[(3,5,6-trichloro-2-pyridinyl)oxy]acetate] | 100% | 100% | 60% | 78% | 95% | 100% | 100% | – | – | Percent (%) Visual Injury Ratings - 31 DAA, ORYSP ([5]; 280 g ae/ha in-water): 3%; Percent (%) Visual Injury Ratings - 31 DAA, ORYSP ([5]; 560 g ae/ha in-water): 22%; Percent (%) Visual Injury Ratings - 31 DAA, ORYSP ([5]; 1120 g ae/ha in-water): 72%; pest or weed control at 560 g/ha [1, 11]: 100%; pest or weed control at 560 g/ha [3, 11]: 100%
7 | O=C(O)c1nc(Cl)ccc1Cl [clopyralid, 3,6-dichloro-2-pyridinecarboxylic acid] | – | – | – | – | – | – | – | little to no crop injury | highly efficacious | –
8 | O=C(O)COc1nc(Cl)c(Cl)cc1Cl [triclopyr, 2-[(3,5,6-trichloro-2-pyridinyl)oxy]acetic acid] | – | – | – | – | – | – | – | little to no crop injury | highly efficacious | –
